Experiments:
5-lipoxygenase = target: T1, 5-lipoxygenase (Homo sapiens, UniProt P09917); experiment: spectrophotometric enzyme assay at […] nm, linoleic acid substrate, human recombinant enzyme; type: biochemical; settings: read-out: Anti-inflammatory assay 5-LOX, IC50
T1 construct: gene ALOX5
T1 sequence (P09917 1-674): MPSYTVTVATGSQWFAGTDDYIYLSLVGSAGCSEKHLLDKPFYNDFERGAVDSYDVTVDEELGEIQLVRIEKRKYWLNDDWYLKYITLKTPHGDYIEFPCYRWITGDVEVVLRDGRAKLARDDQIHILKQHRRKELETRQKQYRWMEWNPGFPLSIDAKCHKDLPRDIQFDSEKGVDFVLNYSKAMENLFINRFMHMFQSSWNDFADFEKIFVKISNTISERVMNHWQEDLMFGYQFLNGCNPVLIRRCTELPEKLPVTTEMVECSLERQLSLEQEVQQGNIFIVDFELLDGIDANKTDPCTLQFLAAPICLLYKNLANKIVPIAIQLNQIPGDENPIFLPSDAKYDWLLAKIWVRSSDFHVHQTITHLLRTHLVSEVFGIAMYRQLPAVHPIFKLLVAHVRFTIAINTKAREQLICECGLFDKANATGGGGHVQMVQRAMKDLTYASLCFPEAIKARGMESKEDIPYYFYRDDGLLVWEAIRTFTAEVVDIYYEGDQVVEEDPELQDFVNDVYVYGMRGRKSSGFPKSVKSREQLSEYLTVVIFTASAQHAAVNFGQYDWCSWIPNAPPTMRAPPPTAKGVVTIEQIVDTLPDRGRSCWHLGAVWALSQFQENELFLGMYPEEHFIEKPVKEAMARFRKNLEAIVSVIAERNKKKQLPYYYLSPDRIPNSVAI

acetylcholinesterase = target: T2, acetylcholinesterase (Electrophorus electricus, UniProt O42275); experiment: Ellman spectrophotometric assay at […] nm, electric eel enzyme; type: biochemical; settings: read-out: Antiacetylcholinesterase assay, IC50
T2 construct: gene ache; Type-VI-S, EC 3.1.1.7
T2 sequence (O42275 24-633): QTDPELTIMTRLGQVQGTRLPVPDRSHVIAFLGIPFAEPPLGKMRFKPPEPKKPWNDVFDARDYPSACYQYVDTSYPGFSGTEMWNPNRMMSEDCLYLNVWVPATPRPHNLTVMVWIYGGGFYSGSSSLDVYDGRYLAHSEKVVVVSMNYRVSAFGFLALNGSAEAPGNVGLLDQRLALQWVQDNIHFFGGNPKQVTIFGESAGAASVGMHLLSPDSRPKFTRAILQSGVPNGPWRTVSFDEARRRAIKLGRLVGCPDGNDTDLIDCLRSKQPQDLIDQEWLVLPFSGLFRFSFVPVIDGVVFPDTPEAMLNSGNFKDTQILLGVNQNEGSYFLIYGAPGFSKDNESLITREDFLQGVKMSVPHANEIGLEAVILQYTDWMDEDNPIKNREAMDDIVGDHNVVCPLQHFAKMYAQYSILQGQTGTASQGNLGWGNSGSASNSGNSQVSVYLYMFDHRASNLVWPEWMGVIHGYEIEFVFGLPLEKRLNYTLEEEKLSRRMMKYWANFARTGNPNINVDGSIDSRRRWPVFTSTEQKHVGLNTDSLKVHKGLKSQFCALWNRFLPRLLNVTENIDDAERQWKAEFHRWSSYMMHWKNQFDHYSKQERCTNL

In the case of `COc1cc2ccc(=O)oc2cc1O` [SC, 7-hydroxy-6 methoxycoumarin], the IC50 (5-lipoxygenase) is reported as 1.76 ± 0.01 µM and the IC50 (acetylcholinesterase) is reported as 270 ± 0.02 µM.

Source: publication PMC3708431 (Evidence-based Complementary and Alternative Medicine : eCAM, 2013)
